# Data: PubChem BioAssay AID1259332 (Broad Institute, 2017)
# Calls of active or inactive are those of the source. The rule behind the calls is not given here.
# Experiment: CD40 pathway inhibition in B cells – B cell lineage, dose response (AID 1259332);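 note: cells stimulated with CD40 ligand tCD40L; 0% = neutral control wells and -100% = positive control wells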
# Conditions: B cell line, CD40 signaling inhibition reporter
SMILES,"activity change, negative = inhibition (at 10 µM (top of the series))","activity change, negative = inhibition (at 3.5 µM (top of the series))",other results
CC(C)(C)n1cc(C(=O)c2ccc3ccccc3c2O)cn1,-16.1% (inactive),,
CC(C)(C)c1cc(/C=C(\C#N)C(N)=S)cc(C(C)(C)C)c1O,,4.91% (inactive),
O=C(Nc1ccc(C(F)(F)F)cc1)Nc1ccc2c(c1)[C@H]1C[C@@H](CC(=O)N3CCc4ccccc4C3)O[C@@H](CO)[C@H]1O2,,-2.03% (inactive),
Cc1ccc(C2(C)NC(=O)N(CC(=O)Nc3cccnc3Cl)C2=O)cc1 (configuration not stated),-2.81% (inactive),,
COc1ccc(S(=O)(=O)N(C)C[C@@H]2Oc3ccc(NC(=O)Nc4ccc(C(F)(F)F)cc4)cc3C(=O)N([C@H](C)CO)C[C@H]2C)cc1,,-10.6% (inactive),
COc1ccc(C#Cc2ccc([C@H]3[C@@H](CO)N4CCCCN(S(=O)(=O)c5cn(C)cn5)C[C@H]34)cc2)cc1,,,"activity change, negative = inhibition (at 1.1 µM (top of the series)): 15.6% (inactive)"
CC(C)NC(=O)N1CC(=O)N2[C@H](CO)[C@@H](c3ccc(/C=C/c4ccccc4)cc3)[C@H]2C1,,6.58% (inactive),
Cc1ccc(-c2cc(C(=O)N3CC(C)OC(C)C3)c3ccccc3n2)o1 (configuration not stated),,26% (inactive),
COc1ccccc1C(=O)Nc1ccc2c(c1)C(=O)N(C)[C@H]1CC[C@H](CC(=O)Nc3cccc(C(C)C)c3)O[C@@H]1CO2,,12.5% (inactive),
CCCCC1C(=O)NC(=S)N(C)C1=O (configuration not stated),11.5% (inactive),,
Cc1ccc(C(CC(=O)NCc2ccco2)c2ccc(OC(C)C)cc2)cc1 (configuration not stated),3.92% (inactive),,
CCN(CC(=O)Nc1ccc(NC(C)=O)cc1)C(=O)C1CCCN(C(=O)c2ccc(Cl)cc2)C1 (configuration not stated),0.336% (inactive),,
c1cncc(C2=NCCC2)c1,,-2.83% (inactive),
C[C@]12CC[C@H](O)C[C@H]1CC[C@@H]1[C@@H]2CC[C@]2(C)[C@@H](c3ccc(=O)oc3)CC[C@]12O,,1.4% (inactive),
CCCNC(=O)N1[C@H](CO)[C@H](c2ccc(-c3cccc(OC)c3)cc2)[C@@H]1C#N,,12% (inactive),
C[C@@H]1CN([C@H](C)CO)C(=O)Cc2cc(NC(=O)Cc3cn(C)c4ccccc34)ccc2O[C@H]1CN(C)Cc1ccc(C(F)(F)F)cc1,,0.703% (inactive),
CCSc1ccc(-c2cc(NC=O)c3ncc(-c4cccc(C(=O)N(C)C)c4)n3c2)cc1,21.6% (inactive),,
Nc1cccc2nc3ccccc3cc12,22.5% (inactive),,
CCN1C(=O)C(CC(=O)Nc2ccc(OC)cc2)N(CCc2ccc(F)cc2)C1=S (configuration not stated),-3.22% (inactive),,
C/C=C/c1ccc(C2[C@H]3CNC[C@@H]2N3Cc2cccc(OC)c2)cc1 (some centres not stated),,,"activity change, negative = inhibition (at 1.1 µM (top of the series)): 19.7% (inactive)"
O=C(Nc1ccccc1F)N1C[C@@H]2N[C@H](C1)C2c1ccc(/C=C/c2ccccc2)cc1 (some centres not stated),,,"activity change, negative = inhibition (at 3 µM (top of the series)): 2.39% (inactive)"
N#C[C@H]1[C@H](c2ccc(C#CC3CCCCC3)cc2)[C@@H](CO)N1C(=O)Nc1ccc(F)cc1,,-2.23% (inactive),
C=C1C(=O)OC2C=C(CO)CCC=C(CO)CC(OC(=O)C(C)C)C12 (configuration not stated),14% (inactive),,
CCCNC(=O)c1cc2c(c(-c3cccc(-c4cc5ccccc5o4)c3)n1)[C@H](CCO)N(C(=O)NC(C)C)C2,,4.19% (inactive),
COc1ccc(S(=O)(=O)N(C)C[C@@H]2Oc3ccc(NC(=O)Nc4ccc(C(F)(F)F)cc4)cc3C(=O)N([C@@H](C)CO)C[C@@H]2C)cc1,8.35% (inactive),,
O=C1Cc2c([nH]c3ccc(Br)cc23)-c2ccccc2N1,17.8% (inactive),,

SMILES,"activity change, negative = inhibition (at 10 µM (top of the series))","activity change, negative = inhibition (at 3.5 µM (top of the series))",other results
Cc1c(C(=O)c2cccc3ccccc23)c2cccc3c2n1[C@H](CN1CCOCC1)CO3,-18.3% (inactive),,
C[C@@H]1CCCCO[C@@H](CN(C)CC2CCCCC2)[C@@H](C)CN([C@@H](C)CO)C(=O)c2cc(NC(=O)Nc3ccc(C(F)(F)F)cc3)ccc2O1,,-6.41% (inactive),
Cc1ccc(-c2cc(C(=O)N3CCCC(C(F)(F)F)C3)c3ccccc3n2)o1 (configuration not stated),16.7% (inactive),,
COc1ccc(CN2CC3(CN(C(=O)Cc4ccccc4)C3)c3c([nH]c4cc(OC)ccc34)[C@H]2CO)cc1,,-3.26% (inactive),
Cc1ccc(-c2nn3c(C)nnc3c3ccccc23)cc1S(=O)(=O)NCc1ccccc1,3.44% (inactive),,
Oc1cc2c(cc1C(c1ccc(Br)cc1)N1CCCC1)OCO2 (configuration not stated),,16.1% (inactive),
O=C(CNCCO)N1N=C(c2cccs2)CC1c1cccs1 (configuration not stated),12.3% (inactive),,
CCCCn1c(NC(=O)c2ccc(Br)o2)c(S(=O)(=O)c2ccccc2)c2nc3ccccc3nc21,6.39% (inactive),,
CCc1cc2c(=O)c(-c3ccc4c(c3)OCCO4)coc2c(CN2CCCCC2C)c1O (configuration not stated),1.98% (inactive),,
COc1cccc(OC)c1OCCNCC1COc2ccccc2O1 (configuration not stated),18.1% (inactive),,
CC1=CC(=O)c2ccccc2C1=O,,11.2% (inactive),
C[C@H]1CN([C@@H](C)CO)C(=O)c2c(c3ccccc3n2C)-c2ccccc2CO[C@H]1CN(C)S(=O)(=O)c1ccc([N+](=O)[O-])cc1,,-3.2% (inactive),
C[C@@H]1CN([C@H](C)CO)C(=O)c2c(c3ccccc3n2C)-c2ccccc2CO[C@H]1CN(C)C(=O)c1cc(Cl)cc(Cl)c1,-4.87% (inactive),,
CCCNC(=O)N1[C@H](C#N)[C@@H](c2ccc(-c3cccc(OC)c3)cc2)[C@H]1CO,,1.94% (inactive),
Oc1cc(O)cc(/C=C/c2ccc(O)c(O)c2)c1,-10.7% (inactive),,
COc1cccc(S(=O)(=O)N(C)C[C@H]2OCc3ccccc3-c3c(n(C)c4ccccc34)C(=O)N([C@@H](C)CO)C[C@H]2C)c1,,-5.41% (inactive),
O=C1C(O)CC2c3ccccc3CC3(CCCC3)N12 (configuration not stated),0.899% (inactive),,
CCc1cnc(N2[C@H](C#N)[C@@H](c3ccccc3C3=CCCC3)[C@@H]2CO)s1,,,"activity change, negative = inhibition (at 1.1 µM (top of the series)): 18.2% (inactive)"
CCCCc1nc2ccccc2[nH]1,2.81% (inactive),,
C[C@@H]1CN([C@@H](C)CO)S(=O)(=O)c2ccc(C#Cc3ccccc3F)cc2O[C@H]1CN(C)C(=O)Cc1cccnc1,-17.7% (inactive),,
COc1ccc(S(=O)(=O)N(C)C[C@H]2Oc3ccc(NC(=O)Nc4ccc(C(F)(F)F)cc4)cc3C(=O)N([C@@H](C)CO)C[C@@H]2C)cc1,,,"activity change, negative = inhibition (at 1.1 µM (top of the series)): 11.5% (inactive)"
OC1(c2ccc(Cl)c(C(F)(F)F)c2)CCN(CCCC(c2ccc(F)cc2)c2ccc(F)cc2)CC1,3.82% (inactive),,
COc1cccc(S(=O)(=O)N(C)C[C@@H]2OCc3ccccc3-c3c(n(C)c4ccccc34)C(=O)N([C@@H](C)CO)C[C@@H]2C)c1,8.02% (inactive),,
C[C@@H]1CN([C@@H](C)CO)C(=O)c2c(c3ccccc3n2C)-c2ccccc2CO[C@H]1CN(C)S(=O)(=O)c1ccc([N+](=O)[O-])cc1,-6.57% (inactive),,
CCc1cnc(N2[C@H](C#N)[C@@H](c3ccc(C#CC(C)C)cc3)[C@H]2CO)s1,,8.53% (inactive),
COc1ccc(Cl)cc1NC(=O)Nc1cc(C)nc2ccccc12,,-7.79% (inactive),
